From patent publication US7820623B2 (priority 2006, dated 2010)

How the values were obtained:
[1] = system: IL-2 production from αCD3 and αCD28 antibody stimulated human PBMCs; format: cell-based
[2] = system: IFNγ production from PMA and αCD3 antibody stimulated human PBMCs; format: cell-based
[3] = rat, in vivo, iv
[4] = system: adoptive transfer EAE model of multiple sclerosis; settings: rat, in vivo, sc
[5] = system: CD40L on CD4+ T cells in human whole blood; format: cell-based
[6] = system: thapsigargin-induced IFN-g production in human whole blood; format: cell-based
[7] = system: IFNγ production from αCD3 and αCD28 antibody stimulated human PBMCs; format: cell-based
[8] = system: IL-2 production from PMA and αCD3 antibody stimulated human PBMCs; format: cell-based
[9] = system: IL-2R on CD4+ T cells in human whole blood; format: cell-based
[10] = system: thapsigargin-induced IL-2 production in human whole blood
[11] = system: T cell proliferation in human PBMCs; experiment: T cell proliferation (3H-thymidine incorporation) in anti-CD3/anti-CD28 stimulated human PBMCs; format: cell-based; settings: two normal donors
Source text: Inhibition of T cell proliferation following anti-CD3 and anti-CD28 antibody stimulation of PBMCs. PBMC's were previously isolated from normal human donor Leukophoresis packs, purified by density gradient centrifugation (Ficoll Hypaque), cryopreserved in CPZ Cryopreservation Medium Complete (INCELL, MCPZF-100 plus 10% DMSO final). PBMC's were thawed (95% viability), washed, and seeded at 2×10^5 cells per well in culture medium (RPMI medium 1640; GIBCO) supplemented with 10% fetal calf serum, 100 U/ml penicillin, […] streptomycin, 2 mM L-glutamine, 100 μM non-essential amino acids, and 20 μM 2-ME) in 96-well flat-bottom tissue culture plates. Cells were pre-incubated with either anti-human CD32 (FcyRII) blocking antibody (per manufacturers instructions EASY SEP Human Biotin Selection Kit #18553, StemCell Technologies Vancouver, BC) or Fc-L10-ShK (100 nM-0.001 nM final) for 45 min. Fc-L10-ShK (100 nM-0.001 nM final) was then added to the cells containing anti-human CD32 blocking antibody while medium was added to the cells containing Fc-L10-ShK. Both sets were incubated for an additional 45 min before stimulating for 48 hr with aCD3/aCD28 (0.2 ng/ml and 100 ng/ml, respectively). Final assay volume was 200 ul. […] Cells were then harvested onto glass fiber filters and radioactivity was measured in a B-scintillation counter.

[12] = target: fixed HEK 293 cells stably transfected with human Kv1.3 (Homo sapiens, UniProt P22001); experiment: Whole cell immunoassay (ELISA) on fixed HEK 293 cells overexpressing Kv1.3; format: binding
Chain of fixed HEK 293 cells stably transfected with human Kv1.3 (P22001 whole entry): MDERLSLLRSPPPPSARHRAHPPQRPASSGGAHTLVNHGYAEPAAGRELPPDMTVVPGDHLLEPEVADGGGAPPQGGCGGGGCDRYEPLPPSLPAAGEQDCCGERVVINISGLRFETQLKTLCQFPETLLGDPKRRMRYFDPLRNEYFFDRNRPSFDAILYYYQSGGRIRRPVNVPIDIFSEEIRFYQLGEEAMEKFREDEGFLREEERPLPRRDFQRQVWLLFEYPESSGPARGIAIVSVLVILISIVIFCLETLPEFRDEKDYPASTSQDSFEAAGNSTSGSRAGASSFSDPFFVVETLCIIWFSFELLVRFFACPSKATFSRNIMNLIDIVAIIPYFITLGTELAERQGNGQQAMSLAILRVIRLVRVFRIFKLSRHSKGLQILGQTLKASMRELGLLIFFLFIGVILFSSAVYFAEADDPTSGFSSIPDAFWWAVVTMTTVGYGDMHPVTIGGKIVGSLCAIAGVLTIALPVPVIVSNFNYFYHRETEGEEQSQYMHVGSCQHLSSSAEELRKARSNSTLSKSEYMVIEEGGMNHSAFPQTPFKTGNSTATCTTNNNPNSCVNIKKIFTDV
Description: Our peptibody reagent can be a useful and convenient tool for monitoring Kv1.3 channel expression in patients and have utility in diagnostic applications. The procedure shown in FIG. 34A and FIG. 34B follows.
FIG. 34A. A whole cell immunoassay was performed to show binding of intact Fc-L10-ShK[1-35] to Kv1.3 transfected HEK 293 cells (BioFocus plc, Cambridge, UK). Parent HEK 293 cells or HEK Kv1.3 cells were plated at 3×10e4 cells/well in poly-D-Lysine coated ninety-six well plates (#35-4461; Becton-Dickinson, Bedford, Mass.). Cells were fixed with formalin (Sigma HT50-1-1 Formalin solution, diluted 1:1 with PBS/0.5% BSA before use) by removing cell growth medium, adding 0.2 ml/well formalin solution and incubating at room temperature for 25 minutes and then washing one time with 100 μl/well of PBS/0.5% BSA. Wells were blocked by addition of 0.3 ml/well of BSA blocker (50-61-00; KPL 10% BSA Diluent/Blocking Solution, diluted 1:1 with PBS; KPL, Gaithersburg, Md.) followed by incubation at room temperature, with shaking, for 3 hr. Plates were washed 2 times with 1×KP Wash Buffer (50-63-00; KPL). […] Absorbance was read at 450 nm on a Molecular Devices SpectroMax 340 (Sunnyvale, Calif.).
FIG. 34B. […] Absorbances were read at 405 nm after stopping reactions by addition of 0.1 ml/well of 1% SDS.

[13] = target: HEK 293 cells overexpressing human Kv1.3 (Homo sapiens, UniProt P22001); experiment: Immunohistochemistry of binding to HEK 293 cells overexpressing human Kv1.3; settings: 5 μg/ml peptibody
Chain of HEK 293 cells overexpressing human Kv1.3 (P22001 whole entry): as above
Description: Immunohistochemistry analysis of Fc-L10-ShK[1-35] binding to HEK 293 cells overexpressing human Kv1.3. HEK 293 cells overexpressing human Kv1.3 (HEK Kv1.3) were obtained from BioFocus plc (Cambridge, UK) and maintained per manufacturer's recommendation. The parental HEK 293 cell line was used as a control. Cells were plated on Poly-D-Lysine 24 well plates (#35-4414; Becton-Dickinson, Bedford, Mass.) and allowed to grow to approximately 70% confluence. HEK KV1.3 were plated at 0.5×10e5 cells/well in 1 ml/well of medium. HEK 293 cells were plated at a density of 1.5×10e5 cells/well in 1 ml/well of medium. Before staining, cells were fixed with formalin (Sigma HT50-1-1 Formalin solution, diluted 1:1 with PBS/0.5% BSA before use) by removing cell growth medium, adding 0.2 ml/well formalin solution and incubating at room temperature for ten minutes. Cells were stained by incubating with 0.2 ml/well of 5 μg/ml Fc-L10-ShK[1-35] in PBS/BSA for 30′ at room temperature. Fc-L10-ShK[1-35] was aspirated and then the cells were washed one time with PBS/0.5% BSA. Detection antibody (Goat F(ab)2 anti-human IgG-phycoerythrin; Southern Biotech Associates, Birmingham, Ala.) was added to the wells at 5 μg/ml in PBS/0.5% BSA and incubated for 30′ at room temperature. Wash cells once with PBS/0.5% BSA and examine using confocal microscopy (LSM 510 Meta Confocal Microscope; Carl Zeiss AG, Germany). […]

Molecule | inhibition of IL-2 production [1] | inhibition of IFNγ production [2] | duration of significant suppression of Kv1.3 current (<70 POC) by serum [3] | body weight lost (average) [4] | disease severity and survival [4] | onset of disease [4] | thapsigargin-induced upregulation of CD40L on T cells [5] | thapsigargin-induced IFN-g production in human whole blood [6] | inhibition of IFNg production [7] | inhibition of IL-2 production [8] | thapsigargin-induced upregulation of the IL-2R on T cells [9] | thapsigargin-induced IL-2 production in human whole blood [10] | inhibition of T cell proliferation [11] | enzyme-immunoassay response on fixed Kv1.3 transfected cells [12] | staining of cells [13]
CC[C@H](C)[C@@H]1NC(=O)[C@@H](NC(=O)[C@H](CO)NC(=O)[C@@H](N)CCCNC(=N)N)CSSC[C@@H](C(=O)O)NC(=O)[C@H]([C@@H](C)O)NC(=O)CNC(=O)[C@@H]2CSSC[C@@H]3NC(=O)[C@H](CCC(N)=O)NC(=O)[C@H](Cc4ccccc4)NC(=O)[C@H](C)NC(=O)[C@H]([C@@H](C)O)NC(=O)[C@H](CSSC[C@H](NC(=O)[C@H](Cc4ccccc4)NC(=O)[C@H](CO)NC(=O)[C@H](CC(C)C)NC(=O)[C@H](CCCNC(=N)N)NC(=O)[C@H](Cc4ccc(O)cc4)NC(=O)[C@H](CCCCN)NC(=O)[C@H](CCSC)NC(=O)[C@H](CO)NC(=O)[C@H](Cc4cnc[nH]4)NC(=O)[C@H](CCCCN)NC3=O)C(=O)N[C@@H](CCCNC(=N)N)C(=O)N[C@@H](CCCCN)C(=O)N[C@@H]([C@@H](C)O)C(=O)N2)NC(=O)[C@H](CCCNC(=N)N)NC(=O)[C@H](CO)NC(=O)[C@H](CCCCN)NC(=O)[C@@H]2CCCN2C(=O)[C@H]([C@@H](C)CC)NC(=O)[C@H]([C@@H](C)O)NC(=O)[C@H](CC(=O)O)NC1=O [ShK, reference compound] | partial inhibition | partial inhibition | ≤ 1 h | 30 g | developed severe disease and died | 4 days | suppressed | suppressed | partial inhibition | partial inhibition | suppressed | suppressed | – | – | –
Fc-L10-ShK[1-35]: Fc region of human IgG1 fused in-frame to L10 linker and a monomer of Kv1.3 inhibitor peptide ShK[1-35] | nearly complete inhibition | complete inhibition | – | – | – | – | suppressed | – | nearly complete inhibition | complete inhibition | suppressed | – | potently inhibits proliferation of T cells in a dose-dependent manner | dose-dependent increase in response | stains HEK 293 cells stably transfected with human Kv1.3
